From publication PMC11409709, “Inhibition of DRP-1 mitochondrial mitophagy and fission by novel α-aminophosphonates bearing pyridine: synthesis, biological evaluations, and computer-aided design” (BMC Chemistry, 2024)
Entries after “also recorded” stand apart in the source; their conditions may differ. Read-outs that look alike come from different tables or passages of the source.

Tests used:
[1] = test system: hepatocellular carcinoma (HepG-2); assay: MTT assay, HepG-2; type: cell-based, human; details: for antitumor impact on HepG-2: compared with DOX
Excerpt: (§1) Mammary gland (MCF-7;# ATCC HTB-22), colorectal adenocarcinoma (Caco-2; # ATCC HTB-37), hepatocellular carcinoma (HepG-2; #ATCC HB-8065), and human lung fibroblast (WI-38; # ATCC CCL-75). The ATCC cell line was obtained via the Holding Company for Biological Products and Vaccines (VACSERA), Cairo, Egypt.
(§2) The MTT test was utilized to ascertain the phosphonate's inhibitory effects on cell growth utilizing the aforementioned cell lines. The basis of this colorimetric assay is the transformation of yellow tetrazolium bromide (MTT) by mitochondrial succinate dehydrogenase in living cells into a purple formazan derivative. 10% fetal bovine serum was added to RPMI-1640 media used to cultivate cell lines. At 37 °C in an incubator with 5% CO2, 100 units/mL of penicillin and 100 µg/mLof streptomycin were introduced as antibiotics. The cell lines were seeded at 1.0 × 10^4 cells/well in a 96-well plate and kept at 37 °C for 24 h with 5% CO2. Following incubation, the cells were subjected to several concentrations of newly synthesized phosphonates and left for 48 h incubation. 20 µL of a 5 mg/mL MTT solution was added and incubated for 4 h after the drug treatment lasted for 48 h. To dissolve the purple formazan produced in each well, 100 µL of dimethyl sulfoxide (DMSO) was applied. Using a plate reader (EXL 800, USA), the colorimetric test is measured and recorded at the absorbance of 570 nm. (A570 of treated samples/A570 of untreated sample) X 100 was used to compute the relative cell viability as a percentage.

[2] = test system: colorectal adenocarcinoma (Caco-2); assay: MTT assay, Caco-2; type: cell-based, human; details: for IC50: Homo sapiens, Caco-2, 48 h, read-out: Anti-cancer activity CaCo-2 (IC50), MTT, 48 h; for antitumor impact on Caco-2: MTT, 48 h, compared with DOX
Excerpt: as §1, §2

[3] = test system: human lung fibroblast (WI-38); assay: MTT assay, WI-38 normal cells; type: cell-based; details: 48 h
Excerpt: as §1, §2

DPPH radical scavenging = details: for IC50: 0.1 mM DPPH in methanol, 30 min dark, 517 nm
Method: (§3) With slight modifications, the DPPH and ABTS methods were used to test the new phosphonate’s free radical scavenging activity. Briefly, one milliliter of a 0.1 mM DPPH in methanol solution and ABTS in distilled water were added to the newly synthesized compounds. For 30 min, the mixture was left in the dark. The synthetic compounds’ ability to scavenge free radicals was compared to that of L. Ascorbic acid. At 517 nm for DPPH and 734 nm for ABTS, optical density was recorded, and the concentration inhibition was computed.
(§4) The percentage of inhibition is equal to [(A control − A test)/A control] × 100, where A control represents the control absorbance and A test represents the test sample absorbance. It was established what sample concentration (IC50) produced 50% inhibition. Every experiment was conducted in triplicate, and the mean ± SE IC50 values were reported.

ABTS radical scavenging = details: for IC50: 30 min dark, 734 nm
Method: as §3, §4

[4] = test system: bacterial and fungal strains; assay: Disc diffusion, whole panel (result in words); type: cell-based; details: 1 mg/mL
Method: (§5) The produced compounds’ antimicrobial activity was evaluated using a panel of two gram-positive bacteria (Bacillus subtilis (#MTCC NO 441) and Staphylococcus aureus (#MTCC NO 96). as well as two Gram-negative bacteria (Pseudomonas aeruginosa (#MTCC NO 1688), Escherichia coli(#MTCC NO 452)). Two fungi [Candida albicans(#MTCC NO 183) and Aspergillus flavus(#MTCC NO 1344)] were used to assess the compounds' anti-fungal properties. Paper discs of Whatman filter paper with a standard size of […] were made, dissolved in DMSO, and then sterilized in an autoclave. A solution of 1 mg/mL was prepared for each drug separately. Paper discs soaked in the desired concentration of the complex solution were aseptically placed in Petri dishes containing nutrient agar media (20 g + 3 g of beef extract + 5 g of peptone) seeded with bacterial and fungal strains. After 24 h of incubation at 36 °C, the inhibitory zones in the petri dishes were measured. There were three copies of every treatment. Using the same protocol as previously described, the antifungal Clotrimazole and the common standard antibiotic Ciprofloxacin were also tested for antibacterial activity at the same concentrations and solvent combinations.

Mammary gland (MCF-7) = assay: MTT assay, MCF-7; type: cell-based, human; details: for IC50: Homo sapiens, MCF7, 48 h, read-out: Anti-cancer activity MCF-7 (IC50), MTT, 48 h; for antitumor impact on MCF-7: MTT, 48 h, compared with DOX
Excerpt: as §1, §2

Escherichia coli = assay: Disc diffusion, E. coli; type: cell-based; details: inhibition zone vs standard drug, 1 mg/mL, 24 h, 36 °C
Method: as §5

Pseudomonas aeruginosa = assay: Disc diffusion, P. aeruginosa; type: cell-based; details: inhibition zone vs standard drug, 1 mg/mL, 24 h, 36 °C
Method: as §5

Staphylococcus aureus = assay: Disc diffusion, S. aureus; type: cell-based; details: inhibition zone vs standard drug, 1 mg/mL, 24 h, 36 °C
Method: as §5

Bacillus subtilis = assay: Disc diffusion, B. subtilis; type: cell-based; details: inhibition zone vs standard drug, 1 mg/mL, 24 h, 36 °C
Method: as §5

Candida albicans = assay: Disc diffusion, C. albicans; type: cell-based; details: inhibition zone vs standard drug, 1 mg/mL, 24 h, 36 °C
Method: as §5

Aspergillus flavus = assay: Disc diffusion, A. flavus; type: cell-based; details: inhibition zone vs standard drug, 1 mg/mL, 24 h, 36 °C
Method: as §5

[5] = Homo sapiens, HepG2, 48 h, read-out: Anti-cancer activity HepG-2 (IC50), MTT, 48 h

SMILES: CCOP(=O)(OCC)C(Nc1ncc(Cl)cc1Cl)c1ccc(O)c(OC)c1 (stereo not drawn) [Compound 3a, Diethyl(((3,5-dichloropyridin-2-yl)amino)(4-hydroxy-3-methoxyphenyl)methyl)phosphonate]
- IC50 [1, 5]: 17.9 ± 1.3 µM
- IC50 [2]: 3.3 µM
- antitumor impact on Caco-2 [2]: low effect
- cytotoxic effect on WI-38 normal cells [3]: without any toxic effects
- DPPH scavenging (DPPH radical scavenging): moderate impact
- ABTS scavenging (ABTS radical scavenging): moderate impact
- biocidal effect against bacterial and fungal strains [4]: moderate
- melting point: 66 to 68 °C

SMILES: CCOP(=O)(OCC)C(Nc1ncc(Cl)cc1Cl)c1ccc(O)cc1 (stereo not drawn) [Compound 3b, Diethyl (((3,5-dichloropyridin-2-yl)amino)(4-hydroxyphenyl)methyl)phosphonate]
- IC50 [1, 5]: 66.8 ± 3.5 µM
- DPPH scavenging (DPPH radical scavenging): weak capacity
- ABTS scavenging (ABTS radical scavenging): weak capacity
- biocidal effect against bacterial and fungal strains [4]: weak
- melting point: 56 to 58 °C

SMILES: CCOP(=O)(OCC)C(Nc1ncc(Cl)cc1Cl)c1ccccc1OC (stereo not drawn) [Compound 3c, Diethyl (((3,5-dichloropyridin-2-yl)amino)(2-methoxyphenyl)methyl)phosphonate]
- antitumor impact on HepG-2 ([1]; MTT, 48 h): moderate to weak impact
- IC50 [2]: 2.3 µM
- antitumor impact on Caco-2 [2]: moderate to weak impact
- IC50 (Mammary gland (MCF-7)): 2.1 µM
- antitumor impact on MCF-7 (Mammary gland (MCF-7)): moderate to weak impact
- DPPH scavenging (DPPH radical scavenging): weak capacity
- ABTS scavenging (ABTS radical scavenging): weak capacity
- biocidal effect against bacterial and fungal strains [4]: moderate
- melting point: 73 to 75 °C

SMILES: CCOP(=O)(OCC)C(Nc1ncc(Cl)cc1Cl)c1c(O)ccc2ccccc12 (stereo not drawn) [Compound 3d, Diethyl (((3,5-dichloropyridin-2-yl)amino)(2-hydroxynaphthalen-1-yl)methyl)phosphonate]
- cytotoxic effect on WI-38 normal cells [3]: no cytotoxic effects; also recorded: without any toxic effects
- IC50 (DPPH radical scavenging): 20.04 ± 0.14 µM
- IC50 (ABTS radical scavenging): 29.14 ± 0.18 µM
- activity index E. coli (Escherichia coli): 42.3%
- activity index P. aeruginosa (Pseudomonas aeruginosa): 60.9%
- activity index S. aureus (Staphylococcus aureus): 62.5%
- activity index B. subtilis (Bacillus subtilis): 52.2%
- activity index C. albicans (Candida albicans): 81.5%
- activity index A. flavus (Aspergillus flavus): 72%
- melting point: 145 to 147 °C

SMILES: CCOP(=O)(OCC)C(Nc1ncc(Cl)cc1Cl)c1ccc(N(C)C)cc1 (stereo not drawn) [Compound 3e, Diethyl (((3,5-dichloropyridin-2-yl)amino)(4-(dimethylamino)phenyl)methyl)phosphonate]
- IC50 [1, 5]: 3.1 µM
- antitumor impact on HepG-2 ([1]; MTT, 48 h): moderate to weak impact
- antitumor impact on Caco-2 [2]: moderate to weak impact
- IC50 (Mammary gland (MCF-7)): 3.4 µM
- antitumor impact on MCF-7 (Mammary gland (MCF-7)): moderate to weak impact
- DPPH scavenging (DPPH radical scavenging): weak capacity
- ABTS scavenging (ABTS radical scavenging): weak capacity
- biocidal effect against bacterial and fungal strains [4]: weak
- melting point: 70 to 72 °C

SMILES: CCOP(=O)(OCC)C(Nc1ncc(Cl)cc1Cl)c1ccsc1 (stereo not drawn) [Compound 3f, Diethyl (((3,5-dichloropyridin-2-yl)amino)(thiophen-3-yl)methyl)phosphonate]
- IC50 [2]: 1.7 µM
- antitumor impact on Caco-2 [2]: low effect
- cytotoxic effect on WI-38 normal cells [3]: without any toxic effects
- DPPH scavenging (DPPH radical scavenging): moderate impact
- ABTS scavenging (ABTS radical scavenging): moderate impact
- biocidal effect against bacterial and fungal strains [4]: moderate
- melting point: 88 to 90 °C

SMILES: CCOP(=O)(OCC)C(Nc1ncc(Cl)cc1Cl)c1ccccc1O (stereo not drawn) [Compound 3g, Diethyl (((3,5-dichloropyridin-2-yl)amino)(2-hydroxyphenyl)methyl)phosphonate]
- IC50 [1, 5]: 2.4 µM
- antitumor impact on HepG-2 ([1]; MTT, 48 h): moderate to weak impact
- IC50 [2]: 3 µM
- antitumor impact on Caco-2 [2]: moderate to weak impact
- IC50 (Mammary gland (MCF-7)): 2.6 µM
- antitumor impact on MCF-7 (Mammary gland (MCF-7)): moderate to weak impact
- DPPH scavenging (DPPH radical scavenging): weak capacity
- ABTS scavenging (ABTS radical scavenging): weak capacity
- biocidal effect against bacterial and fungal strains [4]: weak
- melting point: 100 to 102 °C

SMILES: COc1cccc2c1C(=O)c1c(O)c3c(c(O)c1C2=O)C[C@@](O)(C(=O)CO)C[C@@H]3O[C@H]1C[C@H](N)[C@H](O)[C@H](C)O1 [DOX, reference compound]
- IC50 ([1]; MTT, 48 h, read-out: Anti-cancer activity HepG-2 (IC50)): 6.72 ± 0.5 µM
- IC50 [3]: 6.72 ± 0.5 µM
- cytotoxic effect on WI-38 normal cells [3]: highly toxic effects

SMILES: O=C1O[C@H]([C@@H](O)CO)C(O)=C1O [L-Ascorbic acid, reference compound]
- IC50 (DPPH radical scavenging): 16.81 ± 0.1 µM
- IC50 (ABTS radical scavenging): 29.47 ± 0.17 µM
